Structures can show the parent of a compound that is named as a salt.
Each compound was assayed against T1, Vitronectin receptor αVβ3 (Homo sapiens, UniProt P05106+P06756) (assay: Vitronectin Receptor αVβ3 Binding Assay). Details: not given.
T1 construct: expressed in transfected cells; host or cells: 512P5 cells (plasma membrane preparation)
T1 sequence (P06756 31-889 limits assumed): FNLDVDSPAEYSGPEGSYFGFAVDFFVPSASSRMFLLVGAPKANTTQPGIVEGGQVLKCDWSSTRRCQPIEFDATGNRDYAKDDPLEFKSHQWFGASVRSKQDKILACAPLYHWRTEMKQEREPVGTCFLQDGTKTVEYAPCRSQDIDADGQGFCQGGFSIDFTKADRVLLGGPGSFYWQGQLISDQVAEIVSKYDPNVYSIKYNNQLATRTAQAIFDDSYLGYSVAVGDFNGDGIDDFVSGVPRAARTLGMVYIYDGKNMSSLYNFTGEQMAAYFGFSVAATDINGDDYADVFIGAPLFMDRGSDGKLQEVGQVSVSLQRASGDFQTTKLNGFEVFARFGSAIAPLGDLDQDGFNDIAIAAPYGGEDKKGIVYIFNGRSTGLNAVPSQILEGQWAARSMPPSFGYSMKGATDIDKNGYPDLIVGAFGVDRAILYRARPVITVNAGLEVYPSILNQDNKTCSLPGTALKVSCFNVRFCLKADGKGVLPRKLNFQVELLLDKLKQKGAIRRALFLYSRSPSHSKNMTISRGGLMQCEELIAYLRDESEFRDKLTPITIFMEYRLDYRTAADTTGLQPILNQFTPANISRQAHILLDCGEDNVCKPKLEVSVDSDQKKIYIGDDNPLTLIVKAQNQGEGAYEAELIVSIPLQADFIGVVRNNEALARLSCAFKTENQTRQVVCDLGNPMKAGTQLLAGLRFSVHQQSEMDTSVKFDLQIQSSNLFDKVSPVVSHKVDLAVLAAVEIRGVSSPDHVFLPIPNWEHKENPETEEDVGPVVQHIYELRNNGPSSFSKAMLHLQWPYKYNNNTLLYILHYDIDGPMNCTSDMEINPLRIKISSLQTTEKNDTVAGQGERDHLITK
T1 sequence (P06756 891-1048 partner limits assumed): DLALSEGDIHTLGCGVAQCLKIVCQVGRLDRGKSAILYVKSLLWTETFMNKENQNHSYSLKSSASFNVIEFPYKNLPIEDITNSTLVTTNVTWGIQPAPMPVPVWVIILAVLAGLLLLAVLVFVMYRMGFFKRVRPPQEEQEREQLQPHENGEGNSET
T1 sequence (P05106 27-788): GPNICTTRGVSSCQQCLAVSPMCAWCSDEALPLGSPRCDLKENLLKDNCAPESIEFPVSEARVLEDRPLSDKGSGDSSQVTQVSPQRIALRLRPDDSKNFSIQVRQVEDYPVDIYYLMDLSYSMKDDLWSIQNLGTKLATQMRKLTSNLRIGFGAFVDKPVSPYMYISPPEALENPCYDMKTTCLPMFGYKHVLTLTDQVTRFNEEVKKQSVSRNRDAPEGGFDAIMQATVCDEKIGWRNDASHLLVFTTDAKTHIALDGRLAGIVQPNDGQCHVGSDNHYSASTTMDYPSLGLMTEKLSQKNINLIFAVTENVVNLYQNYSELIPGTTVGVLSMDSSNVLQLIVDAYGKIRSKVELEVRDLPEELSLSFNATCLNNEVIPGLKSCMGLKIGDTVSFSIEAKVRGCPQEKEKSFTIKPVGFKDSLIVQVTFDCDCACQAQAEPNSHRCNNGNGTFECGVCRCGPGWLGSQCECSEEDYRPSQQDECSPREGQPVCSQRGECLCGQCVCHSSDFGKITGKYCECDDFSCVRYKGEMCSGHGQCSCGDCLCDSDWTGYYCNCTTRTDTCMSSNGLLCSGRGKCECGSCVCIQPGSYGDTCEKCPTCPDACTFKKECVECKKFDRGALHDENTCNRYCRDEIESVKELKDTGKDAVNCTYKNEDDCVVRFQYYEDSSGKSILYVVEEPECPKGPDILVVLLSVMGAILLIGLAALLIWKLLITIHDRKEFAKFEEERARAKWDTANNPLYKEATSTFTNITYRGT

| VnR (IC50μM) | Compound |
| --- | --- |
| inactive | CCOC(=O)CC(NC(=O)c1ccc(OCCNc2ncccn2)cc1O)c1cccnc1 (stereo not shown) [Example 281, 3-[2-Hydroxy-4-[2-(pyrimidin-2ylamino)ethoxy]-benzoylamino]-3-pyridine-3-ylpropionic acid ethyl ester] |

Same assay, conditions: read-out: VnR (IC50μM)

| IC50 [µM] | Compound |
| --- | --- |
| 4.57 | N=C(N)NCCOc1ccc(C(=O)NC[C@H](NC(=O)NCc2ccccc2)C(=O)O)c(O)c1 [Example 185, (2S)-3-{[4-(2-{[amino(imino)methyl]amino}ethoxy)-2-hydroxybenzoyl]amino}-2-{[(benzylamino)carbonyl]amino}propanoic acid] |
| 2.6 | C#CCOC(=O)N[C@@H](CNC(=O)c1ccc(OCCNC(=N)N)cc1O)C(=O)O [Example 167, (2S)-3-{[4-(2-{[amino(imino)methyl]amino}ethoxy)-2-hydroxybenzoyl]amino}-2-{[(prop-2-ynyloxy)carbonyl]amino}propanoic acid] |
| > 1 | Cc1cc(C(=O)N[C@@H](CNC(=O)c2ccc(OCCNC3=NCCN3)cc2O)C(=O)O)c(C)o1 [Example 137, (2S)-3-({4-[2-(4,5-dihydro-1H-imidazol-2-ylamino)ethoxy]-2-hydroxybenzoyl}-amino)-2-[(2,5-dimethyl-3-furoyl)amino]propanoic acid] |
| 3.8 | N=C(N)NCCOc1ccc(C(=O)NC[C@H](NC(=O)Nc2ccccc2Cl)C(=O)O)c(O)c1 [Example 175, (2S)-3-{[4-(2-{[amino(imino)methyl]amino}ethoxy)-2-hydroxybenzoyl]amino}-2-{[(2-chloroanilino)carbonyl]amino}propanoic acid] |
| 7.9 | CCCCCCCCOC(=O)N[C@@H](CNC(=O)c1ccc(OCCNC(=O)NCc2cccnc2)cc1O)C(=O)O [Example 242, (2S)-3-({2-hydroxy-4-[2-({[(pyridin-3-ylmethyl)amino]carbonyl}-amino)ethoxy]-benzoyl}amino)-2-{[(octyloxy)carbonyl]amino}propanoic acid] |
| 4.1 | CC(C)OC(=O)N[C@@H](CNC(=O)c1ccc(OCCNC(=O)NCc2ccccc2)cc1O)C(=O)O [Example 224, (2S)-3-{[4-(2-{[(benzylamino)carbonyl]amino}ethoxy)-2-hydroxybenzoyl]amino}-2-[(isopropoxycarbonyl)amino]propanoic acid] |
| 4.98 | N=C(N)NCCOc1ccc(C(=O)NC[C@H](NC(=O)NC2CCCCC2)C(=O)O)c(O)c1 [Example 183, (2S)-3-{[4-(2-{[amino(imino)methyl]amino}ethoxy)-2-hydroxybenzoyl]amino}-2-{[(cyclohexylamino)carbonyl]amino}propanoic acid] |
| 8.8 | O=C(NCCOc1ccc(C(=O)NC[C@H](NC(=O)OCc2ccccc2)C(=O)O)c(O)c1)NCc1ccccc1 [Example 220, (2S)-3-{[4-(2-{[(benzylamino)carbonyl]amino}ethoxy)-2-hydroxybenzoyl]amino}-2-{[(benzyloxy)carbonyl]amino}propanoic acid] |
| 0.0018 | NC(CNC(=O)c1ccc(OCCNC2=NCCCN2)cc1O)C(=O)O (stereo not shown) [Example 295, 2-Amino-3-[2-hydroxy-4-[2-(3,4,5,6-tetra-hydropyrimidin-2-ylamino)ethoxy]-benzoylamino]propionic acid dihydrochloride] |
| 7.48 | Cc1ccccc1C(=O)N[C@@H](CNC(=O)c1ccc(OCCNC(=N)N)cc1O)C(=O)O [Example 204, (2S)-3-{[4-(2-{[amino(imino)methyl]amino}ethoxy)-2-hydroxybenzoyl]amino}-2-[(2-methylbenzoyl)amino]propanoic acid] |
| > 1 | Cc1ccc(C(=O)N[C@@H](CNC(=O)c2ccc(OCCNC3=NCCN3)cc2O)C(=O)O)cc1 [Example 135, (2S)-3-({4-[2-(4,5-dihydro-1H-imidazol-2-ylamino)ethoxy]-2-hydroxybenzoyl}-amino)-2-[(4-methylbenzoyl)amino]propanoic acid] |

The next lines start with the compound.

| Compound | IC50 [µM] |
| --- | --- |
| COC(=O)N[C@@H](CNC(=O)c1ccc(OCCNC2=NCCCN2)cc1O)C(=O)O [Example 2, (2S)-3-({2-hydroxy-4-[2-(1,4,5,6-tetrahydropyrimidin-2-ylamino)ethoxy]benzoyl}-amino)-2-[(methoxycarbonyl)amino]propanoic acid] | 0.187 |
| CCCCNC(=O)N[C@@H](CNC(=O)c1ccc(OCCNc2ncccn2)cc1O)C(=O)O [Example 73, (2S)-2-{[(butylamino)carbonyl]amino}-3-({2-hydroxy-4-[2-(pyrimidin-2-ylamino)ethoxy]benzoyl}amino)propanoic acid] | > 1 |
| CCCCCCCCOC(=O)N[C@@H](CNC(=O)c1ccc(OCCNC2=NCCCN2)cc1O)C(=O)O [Example 9, (2S)-3-({2-hydroxy-4-[2-(1,4,5,6-tetrahydropyrimidin-2-ylamino)ethoxy]benzoyl}-amino)-2-{[(octyloxy)carbonyl]amino}propanoic acid] | 0.11 |
| O=C(Nc1ccccc1)N[C@@H](CNC(=O)c1ccc(OCCNC2=NCCCN2)cc1O)C(=O)O [Example 20, (2S)-2-[(anilinocarbonyl)amino]-3-({2-hydroxy-4-[2-(1,4,5,6-tetrahydropyrimidin-2-ylamino)ethoxy]benzoyl}amino)propanoic acid] | 1.44 |
| CCCCOC(=O)N[C@@H](CNC(=O)c1ccc(OCCNC(=N)N)cc1O)C(=O)O [Example 164, (2S)-3-{[4-(2-{[amino(imino)methyl]amino}ethoxy)-2-hydroxybenzoyl]amino}-2-[(butoxycarbonyl)amino]propanoic acid] | 0.61 |
| O=C(N[C@@H](CNC(=O)c1ccc(OCCNc2ncccn2)cc1O)C(=O)O)OCc1ccccc1 [Example 55, (2S)-2-{[(benzyloxy)carbonyl]amino}-3-({2-hydroxy-4-[2-(pyrimidin-2-ylamino)ethoxy]benzoyl}amino)propanoic acid] | 101 |
| O=C(NCCc1ccccc1)N[C@@H](CNC(=O)c1ccc(OCCNC2=NCCN2)cc1O)C(=O)O [Example 117, (2S)-3-({4-[2-(4,5-dihydro-1H-imidazol-2-ylamino)ethoxy]-2-hydroxybenzoyl}-amino)-2-({[(2-phenylethyl)amino]carbonyl}amino)propanoic acid] | 1.52 |
| O=C(CC1CCCCC1)N[C@@H](CNC(=O)c1ccc(OCCNC2=NCCN2)cc1O)C(=O)O [Example 129, (2S)-2-[(2-cyclohexylacetyl)amino]-3-({4-[2-(4,5-dihydro-1H-imidazol-2-ylamino)ethoxy]-2-hydroxybenzoyl}amino)propanoic acid] | 0.635 |
| O=C(CCc1ccccc1)N[C@@H](CNC(=O)c1ccc(OCCNC2=NCCN2)cc1O)C(=O)O [Example 128, (2S)-3-({4-[2-(4,5-dihydro-1H-imidazol-2-ylamino)ethoxy]-2-hydroxybenzoyl}-amino)-2-[(3-phenylpropanoyl)amino]propanoic acid] | > 1 |
| CCOC(=O)N[C@@H](CNC(=O)c1ccc(OCCNc2ncccn2)cc1O)C(=O)O [Example 66, (2S)-2-[(ethoxycarbonyl)amino]-3-({2-hydroxy-4-[2-(pyrimidin-2-ylamino)-ethoxy]benzoyl}amino)propanoic acid] | 100 |
| Cc1ccccc1C(=O)N[C@@H](CNC(=O)c1ccc(OCCNC2=NCCN2)cc1O)C(=O)O [Example 132, (2S)-3-({4-[2-(4,5-dihydro-1H-imidazol-2-ylamino)ethoxy]-2-hydroxybenzoyl}amino)-2-[(2-methylbenzoyl)amino]propanoic acid] | 0.963 |
| CC(C)COC(=O)N[C@@H](CNC(=O)c1ccc(OCCNC2=NCCN2)cc1O)C(=O)O [Example 107, (2S)-3-({4-[2-(4,5-dihydro-1H-imidazol-2-ylamino)ethoxy]-2-hydroxybenzoyl}-amino)-2-[(isobutoxycarbonyl)amino]propanoic acid] | 0.13 |
| C=CCOC(=O)N[C@@H](CNC(=O)c1ccc(OCCNc2ncccn2)cc1O)C(=O)O [Example 69, (2S)-2-{[(allyloxy)carbonyl]amino}-3-({2-hydroxy-4-[2-(pyrimidin-2-ylamino)ethoxy]benzoyl}amino)propanoic acid] | 100 |
| CC(C)COC(=O)N[C@@H](CNC(=O)c1ccc(OCCNC2=NCCCN2)cc1O)C(=O)O [Example 12, (2S)-3-({2-hydroxy-4-[2-(1,4,5,6-tetrahydropyrimidin-2-ylamino)ethoxy]benzoyl}-amino)-2-[(isobutoxycarbonyl)amino]propanoic acid] | 0.0661 |
| CC(=O)c1ccc(NC(=O)N[C@@H](CNC(=O)c2ccc(OCCNc3ncccn3)cc2O)C(=O)O)cc1 [Example 88, (2S)-2-{[(4-acetylanilino)carbonyl]amino}-3-({2-hydroxy-4-[2-(pyrimidin-2-ylamino)ethoxy]benzoyl}amino)propanoic acid] | > 1 |
| CC(C)(C)CC(=O)N[C@@H](CNC(=O)c1ccc(OCCNC2=NCCN2)cc1O)C(=O)O [Example 122, (2S)-3-({4-[2-(4,5-dihydro-1H-imidazol-2-ylamino)ethoxy]-2-hydroxybenzoyl}-amino)-2-[(3,3-dimethylbutanoyl)amino]propanoic acid] | > 1 |
| (2S)-3-({2-hydroxy-4-[2-(pyrimidin-2-ylamino)ethoxy]benzoyl3 amino)-2-{[(4-methoxyanilino)carbonyl]amino}propanoic acid [Example 74] | > 1 |
| O=C(NCc1ccccc1)N[C@@H](CNC(=O)c1ccc(OCCNc2ncccn2)cc1O)C(=O)O [Example 92, (2S)-2-{[(benzylamino)carbonyl]amino}-3-({2-hydroxy-4-[2-(pyrimidin-2-ylamino)ethoxy]benzoyl}amino)propanoic acid] | > 1 |

Same assay, conditions: reference peptides; 125I-Echistatin 50 pM; 512P5 (αVβ3-overexpressing) cell membranes

| IC50 (μM) | Compound |
| --- | --- |
| inactive at 100 μM | GRGESP [reference compound] |
